Key:
Assay type in all cases: biochemical
PRMT7 = biological target: T1, PRMT7 (Homo sapiens, UniProt Q9NVM4); test: PRMT panel selectivity test, PRMT7
T1 sequence (Q9NVM4 1-692): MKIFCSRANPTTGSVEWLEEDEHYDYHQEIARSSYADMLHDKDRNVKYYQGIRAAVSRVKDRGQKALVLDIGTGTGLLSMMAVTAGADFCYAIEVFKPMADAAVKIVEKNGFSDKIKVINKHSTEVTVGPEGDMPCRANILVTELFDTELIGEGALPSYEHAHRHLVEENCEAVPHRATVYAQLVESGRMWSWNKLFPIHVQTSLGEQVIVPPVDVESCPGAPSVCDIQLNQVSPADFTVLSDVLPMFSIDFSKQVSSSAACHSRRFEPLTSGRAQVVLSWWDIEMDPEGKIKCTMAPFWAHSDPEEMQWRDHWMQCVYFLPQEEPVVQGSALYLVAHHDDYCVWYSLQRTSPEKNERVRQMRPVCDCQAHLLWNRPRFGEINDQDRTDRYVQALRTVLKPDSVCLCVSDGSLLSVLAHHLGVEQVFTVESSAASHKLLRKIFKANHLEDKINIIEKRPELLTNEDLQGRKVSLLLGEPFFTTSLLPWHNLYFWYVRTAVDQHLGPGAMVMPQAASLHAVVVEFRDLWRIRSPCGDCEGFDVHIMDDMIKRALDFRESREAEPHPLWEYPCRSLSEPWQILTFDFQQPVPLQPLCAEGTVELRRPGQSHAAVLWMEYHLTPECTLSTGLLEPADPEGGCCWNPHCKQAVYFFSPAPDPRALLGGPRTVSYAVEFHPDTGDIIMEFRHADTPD
Description: [The procedure below names another target; the source says it served here with some conditions changed.] PRMT1 enzyme activity test were performed in a buffer prepared on the same day 5 consisting of 10 mMTirs-HCl (pH=8.0), 0.01% Tween-20 and 1 mM DTT. The compounds were prepared to the highest inhibitor concentration ultimately required in the 100× reaction with 100% DMSO and then transferred to one well of a 384-well Echo plate (Echo-eligible 384-well polypropylene microplates 2.0, transparent, flat-bottomed) and sequentially diluted in the next well with a 3-fold dilution of 100% DMSO, and so on, with a total of 10 concentrations based on Precision. 100% DMSO was added to two empty wells to serve as control well without compound and control well without enzyme in the same 384-well Echo plate. 250 nL of compound was transferred from each well of the 384-well Echo plate to a 384-well assay plate (384-well polypropylene storage microplate) via the Echo 550 liquid processor. For wells with compounds and control well without compound, a mixture (15 uL) containing PRMT1 enzyme was added to the 384-well assay plate. For control wells without enzyme, the mixture containing the assay buffer (15 uL) was added instead. The compounds were allowed to incubate with PRMT1 for 15 minutes at room temperature, and then a mixture containing ^3H-SAM and peptide (10 uL) was added to start the reaction (final volume=25 uL). […] After 120 min of incubation, the assay was terminated by the addition of non-radiolabeled SAM (5 uL) to a final concentration of 125 uM, which diluted 3H-SAM to a level at which its incorporation into the peptide substrate was no longer detected. […] Plates were read on a microplate counter (MicroBeta2) to measure the amount of ^3H-labeled peptide bound to the surface of the detection plate, measured in counts per minute (cpm).
The raw data were copied from the Reader and the inhibition values were calculated in Excel by Equation (1), Equation (1): Inh %=(CPMmax−CPMcmpd)/(CPMmax−CPMmin)*100, wherein the Max signal was obtained from the enzyme-substrate interaction and the Min signal was obtained from the substrate. […]

PRMT6 = PRMT6 (Homo sapiens, UniProt Q96LA8); test: PRMT panel selectivity test, PRMT6
Sequence of PRMT6 (Q96LA8 whole entry): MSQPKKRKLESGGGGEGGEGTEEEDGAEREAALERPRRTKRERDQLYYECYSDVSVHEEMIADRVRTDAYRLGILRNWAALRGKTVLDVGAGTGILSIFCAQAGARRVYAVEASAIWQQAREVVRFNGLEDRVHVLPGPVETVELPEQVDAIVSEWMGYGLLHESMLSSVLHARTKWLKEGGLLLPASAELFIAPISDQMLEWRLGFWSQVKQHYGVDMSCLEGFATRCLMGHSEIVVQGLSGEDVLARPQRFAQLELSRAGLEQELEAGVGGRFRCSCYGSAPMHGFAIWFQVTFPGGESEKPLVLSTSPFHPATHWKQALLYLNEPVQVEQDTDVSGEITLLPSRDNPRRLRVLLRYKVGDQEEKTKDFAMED
Description: [The procedure below names another target; the source says it served here with some conditions changed.] This experiment was assayed in a buffer prepared on the same day consisting of 10 mMTirs-HCl (pH=8.0), […] and 1 mM DTT. The compounds were prepared to the highest inhibitor concentration ultimately required in the 100× reaction with 100% DMSO and then transferred to one well of a 384-well Echo plate (Echo-eligible 384-well polypropylene microplates 2.0, transparent, flat-bottomed) and sequentially diluted in the next well with a 3-fold dilution of 100% DMSO, and so on, with a total of 10 concentrations based on Precision. 100% DMSO was added to two empty wells as control well without compound and control well without enzyme in the same 384-well Echo plate. 100 nL of compound was transferred from each well of the 384-well Echo plate to a 384-well assay plate (OptiPlate (384-well, white)) via the Echo 550 liquid processor. For wells with compounds and control well without compound, a mixture containing PRMT1 enzyme (5 uL) was added to the 384-well assay plate. For control well without enzyme, a mixture containing test buffer (5 uL) was added instead. The compounds were allowed to incubate with PRMT3 for 15 minutes at room temperature, and then a mixture containing cold SAM and peptide (5 uL) was added to start the reaction (final volume=10 uL). The final concentrations of the components were as follows: 0.1 nM for PRMT3, 15 uM for SAM, 0.05 uM for peptide, and 1% DMSO. After 60 min of incubation at room temperature, the reaction was terminated by the addition of donor and acceptor magnetic beads (15 uL) with a final concentration of 10 ug/mL diluted with AlphaLISA Epigenetics Buffer. The 384-well assay plate was incubated at room temperature for 60 min and the relative fluorescence units (RFU) were nextly determined using a multi-mode plate reader in Alpha mode (Ex680/Em615).
Curve fitting: the raw data were copied from Reader and the inhibition values were calculated in Excel by equation (1). […]

PRMT1 = PRMT1 (Homo sapiens, UniProt Q99873); test: PRMT1 enzyme activity test; details: 0.5 nM PRMT1, 3H-SAM, peptide
Sequence of PRMT1 (Q99873 whole entry): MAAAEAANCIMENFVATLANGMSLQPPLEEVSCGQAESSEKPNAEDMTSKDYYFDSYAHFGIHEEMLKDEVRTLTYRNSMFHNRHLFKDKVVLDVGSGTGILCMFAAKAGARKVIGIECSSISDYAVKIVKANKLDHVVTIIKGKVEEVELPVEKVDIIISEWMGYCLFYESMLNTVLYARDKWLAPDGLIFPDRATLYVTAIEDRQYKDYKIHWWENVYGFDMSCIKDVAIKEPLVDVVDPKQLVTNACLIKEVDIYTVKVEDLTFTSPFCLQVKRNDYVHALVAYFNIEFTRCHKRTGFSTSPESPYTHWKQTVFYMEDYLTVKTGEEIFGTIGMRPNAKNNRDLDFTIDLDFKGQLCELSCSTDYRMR
Method in brief: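 Radiometric methylation assay: 0.5 nM PRMT1 preincubated 15 min at room temperature with compound (10-point 3-fold series, 1% DMSO) in pH 8.0 Tris buffer with Tween-20 and DTT. 0.25 uM ³H-SAM and 0.1 uM biotinylated peptide then reacted 120 min. Product captured on streptavidin FlashPlate and counted; IC50 from four-parameter fit of % inhibition.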

Row | SMILES | IC50 (PRMT7) | IC50 (PRMT6) | IC50 (PRMT1)
1 | CNCCN(C)Cc1ccccc1C1CCN(c2ccccc2)CC1 [P023] | ≥ 10000 nM | < 50 nM | < 50 nM
2 | CNCCN(C)Cc1ncccc1N1CCc2ccccc2CC1 [P118] | ≥ 10000 nM | < 50 nM | < 50 nM
3 | CCOCC1(COCC)CCC(c2cccnc2CN(C)CCNC)CC1 [P207] | ≥ 10000 nM | < 50 nM | < 50 nM

From patent publication US20240307409A1, “ARGININE METHYLTRANSFERASE INHIBITOR AND USE THEREOF” (Cytosinlab Therapeutics Co., Ltd., priority 2021, published 2024)
